Laboratory results published in US6737383B1, “Herbicidal oxadiazolidines” (priority 1999, dated 2004).

Tests used:
[1] = test system: wild oat; experiment: Test B pre/postemergence wild oat; assay type: in vivo, Avena fatua
Procedure, shortened: (§1)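 Response is a visual 0-to-10 score relative to untreated plants, where 0 means no effect and 10 means complete control, taken twelve to sixteen days after application. Treatments went onto soil at planting and onto foliage of 1- to 4-leaf plants, using a surfactant-containing non-phytotoxic solvent.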

[2] = test system: purple nutsedge; experiment: Test B pre/postemergence purple nutsedge; assay type: in vivo, Cyperus rotundus
Procedure, shortened: as §1

[3] = test system: smallflower flatsedge; experiment: Test B flood test smallflower flatsedge; assay type: in vivo, Cyperus difformis
Procedure, shortened: (§2)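 Plants were grown to the 2-leaf stage before treatment with test chemical, then held in a greenhouse for twelve to sixteen days. Injury was visually rated against untreated controls on a 0–10 scale, where 0 is no effect and 10 is complete control.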

[4] = test system: soybean; experiment: Test B pre/postemergence soybean; assay type: in vivo, Glycine max
Procedure, shortened: as §1

[5] = test system: duck salad; experiment: Test B flood test duck salad; assay type: in vivo, Heteranthera limosa
Procedure, shortened: as §2

[6] = test system: sugar beet; experiment: Test B pre/postemergence sugar beet; assay type: in vivo, Beta vulgaris
Procedure, shortened: as §1

[7] = test system: bedstraw; experiment: Test B pre/postemergence bedstraw; assay type: in vivo, Galium aparine
Procedure, shortened: as §1

[8] = test system: giant foxtail; experiment: Test B pre/postemergence giant foxtail; assay type: in vivo, Setaria faberii
Procedure, shortened: as §1

[9] = test system: blackgrass; experiment: Test B pre/postemergence blackgrass; assay type: in vivo, Alopecurus myosuroides
Procedure, shortened: as §1

[10] = test system: rice; experiment: Test B flood test rice; assay type: in vivo, Oryza sativa
Procedure, shortened: as §2

[11] = test system: pigweed; experiment: Test B pre/postemergence pigweed; assay type: in vivo, Amaranthus retroflexus
Procedure, shortened: as §1

[12] = test system: crabgrass; experiment: Test B pre/postemergence crabgrass; assay type: in vivo, Digitaria sanguinalis
Procedure, shortened: as §1

[13] = test system: morningglory; experiment: Test B pre/postemergence morningglory; assay type: in vivo, Ipomoea hederacea
Procedure, shortened: as §1

[14] = test system: cocklebur; experiment: Test B pre/postemergence cocklebur; assay type: in vivo, Xanthium strumarium
Procedure, shortened: as §1

[15] = test system: corn; experiment: Test B pre/postemergence corn; assay type: in vivo, Zea mays
Procedure, shortened: as §1

[16] = test system: surinam grass; experiment: Test B pre/postemergence surinam grass; assay type: in vivo, Brachiaria decumbens
Procedure, shortened: as §1

[17] = Postemergence, Rate 31 g/ha, visual rating, scale 0 to 10 (0 no effect, 10 complete control)
[18] = Preemergence, Rate 31 g/ha, visual rating, scale 0 to 10 (0 no effect, 10 complete control)
[19] = Preemergence, Rate 62 g/ha, scale of 0 to 10 where 0 is no effect and 10 is complete control
[20] = Rate 16 g/ha, Postemergence, scale 0 to 10, 0 no effect, 10 complete control
[21] = Rate 16 g/ha, Preemergence, scale 0 to 10, 0 no effect, 10 complete control
[22] = Rate 62 g/ha, Postemergence, scale 0 to 10 (0 no effect, 10 complete control)
[23] = Rate 125 g/ha, Postemergence, scale of 0 to 10 where 0 is no effect and 10 is complete control
[24] = Rate 16 g/ha, head printed Pre-emergence (flood test species), scale 0 to 10, 0 no effect, 10 complete control
[25] = Rate 31 g/ha, Pre-emergence section (flood test species), scale 0 to 10
[26] = Rate 62 g/ha, headed Pre-emergence (flood test species), scale 0 to 10 (0 no effect, 10 complete control)
[27] = Rate 125 g/ha, Pre-emergence, flood test species, scale 0 to 10 where 0 is no effect and 10 is complete control
[28] = Rate 250 g/ha, Pre-emergence, flood-test species, scale 0 to 10, 0 is no effect, 10 is complete control
[29] = Rate 500 g/ha, Pre-emergence, flood test species, scale 0 to 10 (0 no effect, 10 complete control)
[30] = Rate 125 g/ha, Preemergence, scale of 0 to 10 where 0 is no effect and 10 is complete control

## CCCCCn1c(=O)on(C(=O)N(c2ccc(F)cc2)C(C)C)c1=O [Compound 290]
[1]; [17]
  Wild oats plant response rating: 0
[1]; [18]
  Wild oats plant response rating: 0
[1]; [19]
  Wild oats plant response rating: 0
[1]; [20]
  Wild oats plant response rating: 0
[1]; [21]
  Wild oats plant response rating: 0
[1]; [22]
  Wild oats plant response rating: 0
[1]; [23]
  Wild oats plant response rating: 0
[2]; [17]
  Nutsedge plant response rating: 0
[2]; [18]
  Nutsedge plant response rating: 0
[2]; [19]
  Nutsedge plant response rating: 0
[2]; [20]
  Nutsedge plant response rating: 0
[2]; [21]
  Nutsedge plant response rating: 0
[2]; [22]
  Nutsedge plant response rating: 0
[2]; [23]
  Nutsedge plant response rating: 0
[3]; [24]
  S. Flatsedge plant response rating: 0
[3]; [25]
  S. Flatsedge plant response rating: 0
[3]; [26]
  S. Flatsedge plant response rating: 0
[3]; [27]
  S. Flatsedge plant response rating: 2
[3]; [28]
  S. Flatsedge plant response rating: 0
[3]; [29]
  S. Flatsedge plant response rating: 0
[4]; [17]
  Soybean plant response rating: 1
[4]; [18]
  Soybean plant response rating: 0
[4]; [19]
  Soybean plant response rating: 0
[4]; [20]
  Soybean plant response rating: 1
[4]; [21]
  Soybean plant response rating: 0
[4]; [22]
  Soybean plant response rating: 2
[4]; [23]
  Soybean plant response rating: 2
[4]; [30]
  Soybean plant response rating: 0
[5]; [24]
  Ducksalad plant response rating: 0
[5]; [25]
  Ducksalad plant response rating: 0
[5]; [26]
  Ducksalad plant response rating: 0
[5]; [27]
  Ducksalad plant response rating: 0
[5]; [28]
  Ducksalad plant response rating: 0
[5]; [29]
  Ducksalad plant response rating: 0
[6]; [17]
  Sugarbeets plant response rating: 0
[6]; [18]
  Sugarbeets plant response rating: 0
[6]; [19]
  Sugarbeets plant response rating: 2
[6]; [20]
  Sugarbeets plant response rating: 0
[6]; [21]
  Sugarbeets plant response rating: 0
[6]; [22]
  Sugarbeets plant response rating: 0
[6]; [23]
  Sugarbeets plant response rating: 0
[6]; [30]
  Sugarbeets plant response rating: 5
[7]; [17]
  Bedstraw plant response rating: 0
[7]; [18]
  Bedstraw plant response rating: 0
[7]; [19]
  Bedstraw plant response rating: 0
[7]; [20]
  Bedstraw plant response rating: 0
[7]; [21]
  Bedstraw plant response rating: 0
[7]; [22]
  Bedstraw plant response rating: 0
[7]; [23]
  Bedstraw plant response rating: 0
[7]; [30]
  Bedstraw plant response rating: 3
[8]; [17]
  Giant foxtail plant response rating: 0
[8]; [18]
  Giant foxtail plant response rating: 2
[8]; [19]
  Giant foxtail plant response rating: 8
[8]; [20]
  Giant foxtail plant response rating: 0
[8]; [21]
  Giant foxtail plant response rating: 2
[8]; [22]
  Giant foxtail plant response rating: 0
[8]; [23]
  Giant foxtail plant response rating: 0
[8]; [30]
  Giant foxtail plant response rating: 9
[9]; [17]
  Blackgrass plant response rating: 0
[9]; [18]
  Blackgrass plant response rating: 0
[9]; [19]
  Blackgrass plant response rating: 2
[9]; [20]
  Blackgrass plant response rating: 0
[9]; [21]
  Blackgrass plant response rating: 0
[9]; [22]
  Blackgrass plant response rating: 0
[9]; [23]
  Blackgrass plant response rating: 0
[9]; [30]
  Blackgrass plant response rating: 2
[10]; [24]
  Rice plant response rating: 0
[10]; [25]
  Rice plant response rating: 0
[10]; [26]
  Rice plant response rating: 0
[10]; [27]
  Rice plant response rating: 0
[10]; [28]
  Rice plant response rating: 0
[10]; [29]
  Rice plant response rating: 0
[11]; [17]
  Redroot pigweed plant response rating: 0
[11]; [18]
  Redroot pigweed plant response rating: 0
[11]; [19]
  Redroot pigweed plant response rating: 2
[11]; [20]
  Redroot pigweed plant response rating: 0
[11]; [21]
  Redroot pigweed plant response rating: 0
[11]; [22]
  Redroot pigweed plant response rating: 0
[11]; [23]
  Redroot pigweed plant response rating: 0
[11]; [30]
  Redroot pigweed plant response rating: 7
[12]; [17]
  Crabgrass plant response rating: 0
[12]; [18]
  Crabgrass plant response rating: 0
[12]; [19]
  Crabgrass plant response rating: 1
[12]; [20]
  Crabgrass plant response rating: 0
[12]; [21]
  Crabgrass plant response rating: 0
[12]; [22]
  Crabgrass plant response rating: 0
[12]; [23]
  Crabgrass plant response rating: 0
[12]; [30]
  Crabgrass plant response rating: 3
[13]; [17]
  Morningglory plant response rating: 4
[13]; [18]
  Morningglory plant response rating: 0
[13]; [19]
  Morningglory plant response rating: 0
[13]; [20]
  Morningglory plant response rating: 3
[13]; [21]
  Morningglory plant response rating: 0
[13]; [22]
  Morningglory plant response rating: 4
[13]; [23]
  Morningglory plant response rating: 6
[13]; [30]
  Morningglory plant response rating: 0
[14]; [17]
  Cocklebur plant response rating: 0
[14]; [18]
  Cocklebur plant response rating: 0
[14]; [19]
  Cocklebur plant response rating: 0
[14]; [20]
  Cocklebur plant response rating: 0
[14]; [21]
  Cocklebur plant response rating: 0
[14]; [22]
  Cocklebur plant response rating: 0
[14]; [23]
  Cocklebur plant response rating: 0
[14]; [30]
  Cocklebur plant response rating: 0
[15]; [17]
  Corn plant response rating: 0
[15]; [18]
  Corn plant response rating: 0
[15]; [19]
  Corn plant response rating: 0
[15]; [20]
  Corn plant response rating: 0
[15]; [21]
  Corn plant response rating: 0
[15]; [22]
  Corn plant response rating: 0
[15]; [23]
  Corn plant response rating: 0
[15]; [30]
  Corn plant response rating: 0
[16]; [17]
  B. signalgrass plant response rating: 0
[16]; [18]
  B. signalgrass plant response rating: 0
[16]; [19]
  B. signalgrass plant response rating: 0
[16]; [20]
  B. signalgrass plant response rating: 0
[16]; [21]
  B. signalgrass plant response rating: 0
[16]; [22]
  B. signalgrass plant response rating: 0
[16]; [23]
  B. signalgrass plant response rating: 0
[16]; [30]
  B. signalgrass plant response rating: 0
